According to publication PMC8286840, “Identifying SARS-CoV-2 antiviral compounds by screening for small molecule inhibitors of Nsp3 papain-like protease” (Biochemical Journal, 2021):
Counter-ions that a name gives are not always drawn. Like-named read-outs stand apart in the source and are kept apart here.

Experiments:
[1] = target: T1, SARS-CoV-2 PLpro (nsp3 1564–1878) (Severe acute respiratory syndrome coronavirus 2, UniProt P0DTD1); assay: biochemical; set-up: FRET-quenched peptide (Pro3) cleavage by PLpro, 10 min pre-incubation, slope over 20 min, normalised to no-compound control; details: high concentration screen, read-out: % of control remaining
[2] = target: T1, SARS-CoV-2 PLpro (nsp3 1564–1878); assay: biochemical; set-up: FRET-quenched peptide (Pro3) cleavage by PLpro, 10 min pre-incubation, slope over 20 min, normalised to no-compound control; details: low concentration screen, read-out: % of control remaining

With `O=C(O)[C@H]1CCCN1C(=O)CCCCC(=O)N1CCC[C@@H]1C(=O)O` [Miridesap] the remaining activity at 3.75 µM ([1]; Well no.=8078) was 97.4% and the remaining activity at 1.25 µM ([2]; Well no.=8078) was 100%.
`CN1CCN2c3ncccc3Cc3ccccc3C2C1` (centres unmarked) [Mirtazapine] gave a remaining activity at 3.75 µM ([1]; Well no.=6564) of 106% and a remaining activity at 1.25 µM ([2]; Well no.=6564) of 106%.
`CO[C@H](C(=O)[C@@H](O)[C@@H](C)O)[C@@H]1Cc2cc3cc(O[C@H]4C[C@@H](O[C@@H]5C[C@@H](O)[C@H](O)[C@@H](C)O5)[C@H](O)[C@@H](C)O4)c(C)c(O)c3c(O)c2C(=O)[C@H]1O[C@H]1C[C@@H](O[C@@H]2C[C@@H](O)[C@@H](O[C@@H]3C[C@](C)(O)[C@H](O)[C@@H](C)O3)[C@@H](C)O2)[C@H](O)[C@@H](C)O1` [Mithramycin A] gave a remaining activity at 3.75 µM ([1]; Well no.=3411) of 101% and a remaining activity at 1.25 µM ([2]; Well no.=3411) of 96.9%.
`O=C(O)[C@H](CC(=O)N1C[C@H]2CCCC[C@H]2C1)Cc1ccccc1` [Mitiglinide calcium] gave a remaining activity at 3.75 µM ([1]; Well no.=4888) of 96.8% and a remaining activity at 1.25 µM ([2]; Well no.=4888) of 95.5%.
`CO[C@@]12[C@H](COC(N)=O)C3=C(C(=O)C(C)=C(N)C3=O)N1C[C@@H]1N[C@@H]12` [Mitomycin C] was tested, and the remaining activity at 3.75 µM ([1]; Well no.=1672) was 110%, the remaining activity at 3.75 µM ([1]; Well no.=3563) was 100% and the remaining activity at 3.75 µM ([1]; Well no.=7364) was 102%. It also gave a remaining activity at 1.25 µM ([2]; Well no.=1672) of 110%, a remaining activity at 1.25 µM ([2]; Well no.=3563) of 98.9% and a remaining activity at 1.25 µM ([2]; Well no.=7364) of 98.5%.
For `O=C1c2c(O)ccc(O)c2C(=O)c2c(NCCNCCO)ccc(NCCNCCO)c21` [Mitoxantrone HCl], the remaining activity at 3.75 µM ([1]; Well no.=4904) was 91.1% and the remaining activity at 1.25 µM ([2]; Well no.=4904) was 93.4%.
With `O=C1c2c(O)ccc(O)c2C(=O)c2c(NCCNCCO)ccc(NCCNCCO)c21` [Mitoxantrone] the remaining activity at 3.75 µM ([1]; Well no.=1028) was 101%, the remaining activity at 3.75 µM ([1]; Well no.=1997) was 103% and the remaining activity at 1.25 µM ([2]; Well no.=1028) was 100%. The remaining activity at 1.25 µM ([2]; Well no.=1997) was 104%.
`NC(=O)c1ncn([C@@H]2O[C@H](CO)[C@@H](O)[C@H]2O)c1O` [Mizoribine] gave a remaining activity at 3.75 µM ([1]; Well no.=876) of 107% and a remaining activity at 1.25 µM ([2]; Well no.=876) of 105%.
`O=C(NCCN1CCOCC1)c1ccc(Cl)cc1` [Moclobemide] showed a remaining activity at 3.75 µM ([1]; Well no.=4640) of 98.5% and a remaining activity at 1.25 µM ([2]; Well no.=4640) of 99.1%.
Work on `CCOC(=O)[C@H](CCc1ccccc1)N[C@@H](C)C(=O)N1Cc2cc(OC)c(OC)cc2C[C@H]1C(=O)O` [Moexipril (hydrochloride)] yielded a remaining activity at 3.75 µM ([1]; Well no.=8028) of 97.8% and a remaining activity at 1.25 µM ([2]; Well no.=8028) of 98.4%.
In the case of `CCOC(=O)[C@H](CCc1ccccc1)N[C@@H](C)C(=O)N1Cc2cc(OC)c(OC)cc2C[C@H]1C(=O)O` [Moexipril HCl], the remaining activity at 3.75 µM ([1]; Well no.=4760) is reported as 97.7% and the remaining activity at 1.25 µM ([2]; Well no.=4760) is reported as 97.7%.
`CCOC(=O)CC(=O)N1CCSC1COc1ccccc1OC` (centres unmarked) [Moguisteine] gave a remaining activity at 3.75 µM ([1]; Well no.=4931) of 95.6% and a remaining activity at 1.25 µM ([2]; Well no.=4931) of 98.7%.
`O=c1c(-n2ccnn2)c[nH]n1-c1cc(N2CCOCC2)ncn1` [Molidustat (BAY 85-3934)] showed a remaining activity at 3.75 µM ([1]; Well no.=8542) of 111% and a remaining activity at 1.25 µM ([2]; Well no.=8542) of 101%.
`CCc1c(C)[nH]c2c1C(=O)C(CN1CCOCC1)CC2` (centres unmarked) [Molindone (hydrochloride)] was tested, and the remaining activity at 3.75 µM ([1]; Well no.=6905) was 93.3%, the remaining activity at 3.75 µM ([1]; Well no.=7928) was 98.2% and the remaining activity at 1.25 µM ([2]; Well no.=6905) was 98.8%. It also gave a remaining activity at 1.25 µM ([2]; Well no.=7928) of 95.5%.
`CCOC(=O)[N-]c1c[n+](N2CCOCC2)no1` [Molsidomine] showed a remaining activity at 3.75 µM ([1]; Well no.=780) of 104%, a remaining activity at 3.75 µM ([1]; Well no.=1803) of 96.1% and a remaining activity at 1.25 µM ([2]; Well no.=780) of 110%. The remaining activity at 1.25 µM ([2]; Well no.=1803) was 97.9%.
`C[C@@H]1C[C@H]2[C@@H]3CCC4=CC(=O)C=C[C@]4(C)[C@@]3(Cl)[C@@H](O)C[C@]2(C)[C@@]1(OC(=O)c1ccco1)C(=O)CCl` [Mometasone furoate] gave a remaining activity at 3.75 µM ([1]; Well no.=4668) of 103%, a remaining activity at 3.75 µM ([1]; Well no.=6700) of 89.6% and a remaining activity at 1.25 µM ([2]; Well no.=4668) of 103%. The remaining activity at 1.25 µM ([2]; Well no.=6700) was 92.3%.
For `CCOC(=O)C1=C(C)NC(=S)NC1c1cccc(O)c1` (centres unmarked) [Monastrol], the remaining activity at 3.75 µM ([1]; Well no.=891) was 106% and the remaining activity at 1.25 µM ([2]; Well no.=891) was 106%.
Compound `CC[C@@]1([C@@H]2O[C@@H]([C@H]3O[C@@](O)(CO)[C@H](C)C[C@@H]3C)C[C@@H]2C)CC[C@H]([C@]2(C)CC[C@]3(C[C@H](O)[C@@H](C)[C@@H]([C@@H](C)[C@@H](OC)[C@H](C)C(=O)O)O3)O2)O1` [Monensin] has a remaining activity at 3.75 µM ([1]; Well no.=3413) of 99.5% and a remaining activity at 1.25 µM ([2]; Well no.=3413) of 94.8%.
Compound `C[C@H]1C(=O)O[C@@H]2CCN3CC=C(COC(=O)[C@](C)(O)[C@]1(C)O)[C@H]23` [Monocrotaline] has a remaining activity at 3.75 µM ([1]; Well no.=3777) of 103% and a remaining activity at 1.25 µM ([2]; Well no.=3777) of 102%.
With `CC(C)(O)c1ccccc1CC[C@@H](SCC1(CC(=O)O)CC1)c1cccc(/C=C/c2ccc3ccc(Cl)cc3n2)c1` [Montelukast (sodium)] the remaining activity at 3.75 µM ([1]; Well no.=6325) was 98% and the remaining activity at 1.25 µM ([2]; Well no.=6325) was 105%.
Compound `O=c1c(O)c(-c2ccc(O)cc2O)oc2cc(O)cc(O)c12` [Morin hydrate] has a remaining activity at 3.75 µM ([1]; Well no.=5680) of 99.5% and a remaining activity at 1.25 µM ([2]; Well no.=5680) of 99.9%.
`O=c1c(O)c(-c2ccc(O)cc2O)oc2cc(O)cc(O)c12` [Morin] gave a remaining activity at 3.75 µM ([1]; Well no.=1022) of 93.4% and a remaining activity at 1.25 µM ([2]; Well no.=1022) of 96.8%.
Work on `N=C(N=C(N)N)N1CCOCC1` [Moroxydine.HCl] yielded a remaining activity at 3.75 µM ([1]; Well no.=1539) of 105% and a remaining activity at 1.25 µM ([2]; Well no.=1539) of 104%.
In the case of `CCOc1cc(N)c(Cl)cc1C(=O)NCC1CN(Cc2ccc(F)cc2)CCO1` (centres unmarked) [Mosapride (citrate)], the remaining activity at 3.75 µM ([1]; Well no.=6657) is reported as 109% and the remaining activity at 1.25 µM ([2]; Well no.=6657) is reported as 104%.
For `CCOc1cc(N)c(Cl)cc1C(=O)NCC1CN(Cc2ccc(F)cc2)CCO1` (centres unmarked) [Mosapride citrate], the remaining activity at 3.75 µM ([1]; Well no.=4807) was 103% and the remaining activity at 1.25 µM ([2]; Well no.=4807) was 101%.
Work on `CC1(C)CNc2cc(NC(=O)c3cccnc3NCc3ccncc3)ccc21` [Motesanib Diphosphate (AMG-706)] yielded a remaining activity at 3.75 µM ([1]; Well no.=4611) of 100% and a remaining activity at 1.25 µM ([2]; Well no.=4611) of 101%.
Compound `CC1(C)CNc2cc(NC(=O)c3cccnc3NCc3ccncc3)ccc21` [Motesanib] has a remaining activity at 3.75 µM ([1]; Well no.=2697) of 103% and a remaining activity at 1.25 µM ([2]; Well no.=2697) of 104%.
`CCCN(CCC)C(=O)C1=Cc2ccc(-c3ccc(C(=O)N4CCCC4)cc3)cc2N=C(N)C1` [Motolimod] showed a remaining activity at 3.75 µM ([1]; Well no.=8413) of 99% and a remaining activity at 1.25 µM ([2]; Well no.=8413) of 103%.
In the case of `COc1c(N2C[C@@H]3CCCN[C@@H]3C2)c(F)cc2c(=O)c(C(=O)O)cn(C3CC3)c12` [Moxifloxacin HCl], the remaining activity at 3.75 µM ([1]; Well no.=4878) is reported as 93.6% and the remaining activity at 1.25 µM ([2]; Well no.=4878) is reported as 98.1%.
`COc1c(N2C[C@@H]3CCCN[C@@H]3C2)c(F)cc2c(=O)c(C(=O)O)cn(C3CC3)c12` [Moxifloxacin.HCl] was tested, and the remaining activity at 3.75 µM ([1]; Well no.=1568) was 96.5% and the remaining activity at 1.25 µM ([2]; Well no.=1568) was 97.8%.
With `CC(=O)Oc1cc(C(C)C)c(OCCN(C)C)cc1C` [Moxisylyte (hydrochloride)] the remaining activity at 3.75 µM ([1]; Well no.=7424) was 97.7% and the remaining activity at 1.25 µM ([2]; Well no.=7424) was 94%.
